Test results published in PMC6112376, “Comprehensive Analyses and Prioritization of Tox21 10K Chemicals Affecting Mitochondrial Function by in-Depth Mechanistic Studies” (Environmental Health Perspectives, 2018).
Counter-ions that a name gives are not always drawn. Like-named read-outs stand apart in the source and are kept apart here.

How the values were obtained:
HepG2 cells [1] = conditions: cited from earlier work
HepG2 cells [2] = assay: cells; conditions: Homo sapiens; for IC50: HepG2, read-out: MMP assays IC50 (µM) HepG2; for Emax: HepG2, read-out: MMP assays efficacy (%) HepG2
rat primary hepatocytes = assay: MMP assay in rat primary hepatocytes; conditions: for MMP assays IC50 (µM) Rat Hepatocytes / MMP assays efficacy (%) Rat Hepatocytes: mean ± SD of three experiments; for IC50: Rattus norvegicus, Hepatocyte, read-out: MMP assays IC50 (µM) Rat Hepatocytes
[3] = read-out: MMP assays IC50 (µM) qHTS-HepG2
[4] = read-out: MMP assays IC50 (µM), qHTS-HepG2

Row | SMILES | MMP assays efficacy (%) qHTS-HepG2 (HepG2 cells [1]) [%] | IC50 (HepG2 cells [1]; [3]) [µM] | IC50 (HepG2 cells [2]) [µM] | Emax (HepG2 cells [2]) [%] | MMP assays IC50 (µM) Rat Hepatocytes (rat primary hepatocytes) | MMP assays efficacy (%) Rat Hepatocytes (rat primary hepatocytes) | IC50 (rat primary hepatocytes) [µM] | IC50 (HepG2 cells [1]; [4]) [µM]
1 | Cc1cc(O)cc(C)c1Cl [4-Chloro-3,5-dimethylphenol] | -122±6 | 21 | 25.1 | 106 | inactive | inactive |  | 
2 | CCOc1ccc(/N=N/c2ccc(N)cc2N)cc1 [Ethoxazene] | -91±7 | 2.7 ± 1.13 | 2.82 | 94 |  | -106±32% | 4.96 ± 3.42 | 
3 | Nc1cc([N+](=O)[O-])ccc1C(=O)O [4-Nitroanthranilic acid] | -62±14 | 38.6 ± 17.2 | 17.8 | 51 | inactive | inactive |  | 
4 | COC(=O)C1=C(C)NC(C)=C(C(=O)OC(C)(C)CN(C)CCC(c2ccccc2)c2ccccc2)C1c1cccc([N+](=O)[O-])c1 (stereo not drawn) [Lercanidipine hydrochloride] | -83±7 |  |  | 117 |  | -77±16% | 27.5 | 6.53 ± 0.53
5 | O=C(Nc1ccc(Cl)cc1)Nc1ccc(Cl)c(C(F)(F)F)c1 [Cloflucarban] | -113±9 | 0.6 | 0.44 | 85 |  | -95±5% | 0.58 ± 0.05 | 
6 | CC(C)OC(=O)C(C(=O)OC(C)C)=C1SC=CS1 [Malotilate] | -82±14 |  | 39.8 | 79 |  | -106±108% | 23.9 ± 29.3 | 15 ± 1.99
7 | CCc1c(C(=O)NN2CCCCC2)nn(-c2ccc(Cl)cc2Cl)c1-c1ccc(Br)cc1 [Surinabant] | -97±6 |  | 19.9 | 94 |  | -81±29% | 34.3 ± 22.5 | 33.1 ± 16.6
8 | Cc1cc(O)c(C(C)(C)C)cc1C(C)(C)C [4,6-Di-tert-butyl-m-cresol] |  | 2.25 ± 1.49 | 2.51 | 96 |  | -103±14% | 45.9 ± 14.7 | 
9 | c1ccc(CCCc2ccncc2)cc1 [4-(3-Phenylpropyl)pyridine] | -63±19 | 16.6 ± 6.74 | 14.1 | 46 |  | -82±23% | 13 ± 6.83 | 
10 | Nc1ccc(O)c([N+](=O)[O-])c1 [Compound 4-Amino-2-nitrophenol] | -86±33 | 15.4 ± 10.6 | 14.1 | 97 |  | -90±12% | 33.5 ± 2.73 | 
11 | CN1C(C(=O)Nc2ccccn2)=C(O)c2sc(Cl)cc2S1(=O)=O [Lornoxicam] | -92±10 |  | 6.15 | 73 |  | -57±10% | 3.3 ± 2.52 | 9.44 ± 1.09
12 | Nc1cccc(N)n1 [2,6-Diaminopyridine] | -68±18 | 31.3 ± 10.3 | 35.5 | 84 |  | -75±28% | 20.9 ± 15.7 | 
13 | Nc1ccc([N+](=O)[O-])cc1O [Compound 2-Amino-5-nitrophenol] | -70±18 | 27.4 ± 14.1 | 35.5 | 76 |  | -63±37% | 52.1 ± 17.7 | 
14 | Cc1ccc2c(Cl)cc(Cl)c(O)c2n1 [5,7-Dichloro-8-hydroxy-2-methylquinoline] | -120±20 | 11 ± 2 | 1.38 | 60 | inactive | inactive |  | 
15 | COCCOC(=O)C1=C(C)NC(C)=C(C(=O)OC/C=C/c2ccccc2)C1c1cccc([N+](=O)[O-])c1 (stereo not drawn) [Cilnidipine] | -104±6 | 12.5 ± 1.78 | 12.3 | 109 |  | -75±17% | 14.8 ± 8.07 | 
16 | Oc1ccc(C(c2ccc(O)cc2)(C(F)(F)F)C(F)(F)F)cc1 [Bisphenol AF] | -114±10 | 5.44 ± 1.42 | 5.01 | 102 |  |  | 37.3 ± 6.7 | 
17 | Cc1ccc2c(Br)cc(Br)c(O)c2n1 [Broquinaldol] | -114±44 | 26.6 ± 4 | 12.6 | 114 |  | -87±93% | 38.6 ± 34.6 | 
